Experimental data as given in US20080051413A1, “Nitrophenylpiperazine derivative of xanthine which relaxes tracheal airway and increases respiratory performance” (KAOHSIUNG MEDICAL UNIVERSITY, priority 2006, published 2008).

Legend:
[1] = target: T1, PDE5 purified from human platelets (Homo sapiens, UniProt O76074); assay: Phosphodiesterase activity, PDE5; assay type: biochemical; settings: 10 _M compound, n = 3
T1 construct: PDE3 and PDE5 purified from human platelets; from tissue; host or cells: human platelets
Experimental: The reaction was terminated by boiling for 2 min, and the resulting GMP was converted to adenosine by the addition of 10 mg/ml snake venom nucleotidase, which was followed by a further incubation at 37_ for 10 min. Unhydrolyzed cGMP was bound to AG1-X2 resin, and the remaining [^3H]guanosine in the aqueous phase was quantitated by scintillation counting.

[2] = system: cultured guinea pig tracheal smooth muscle cells; assay: Expression of PKA and PKG (Western blot); assay type: cell-based
Experimental: Cell Culture of Tracheal Smooth Muscle: Guinea pigs (350-450 g) were injected i.p. with a lethal dose of pentobarbital. The tracheas were excised and cut longitudinally through the cartilage. Using a dissecting microscope, TSM strips were dissected from the surrounding parentchyma. The epithelium was removed from the luminal surface, and bands of TSM were gently separated from the underlying connective tissue. Then TSM strips were chopped into small sections (1 mm^3) and incubated in Hanks' balanced salt solution (138 mM NaCl, 4 mM NaHCO3, 5 mM KCl, 0.3 mM KH2PO4, 0.3 mM Na2HPO4, and 1.0 mM glucose) with 0.05% elastase type IV and 0.2% collagenase type IV (Invitrogen, Carlsbad, Calif.) for 30 min at 37_ with gentle shaking. The solution of dissociated smooth muscle cells was centrifuged (6 min at 500 g), and the pellet was resuspended in 1:1 Dulbecco's modified Eagle's medium/Ham's F-12 medium supplemented with 10% fetal bovine serum, 0.244% NaHCO3, and 1% penicillin/streptomycin. Cells were cultured in 25-cm^2 flasks at 37_ in humidified air containing 5% CO2. Confluent cells were detached with 0.25% trypsin-0.02% EDTA at 37_and then subcultured to establish secondary cultures. Cultures were maintained for no more than four passages. They were identified as smooth muscle cells by the typical hill-and-valley appearance, and cellular homogeneity was further confirmed by the presence of smooth muscle specific _-myosin and _-actin immunoreactivity. Indirect immunofluorescence staining for a variety of antigens was carried out by first plating the cells on chamber slides, fixing the cells in 3.7% formaldehyde-phosphate-buffered saline for 10 min, and permeabilizing the cells with phosphate-buffered saline and 0.1% Triton X-100. Cells were then stained with either a mouse monoclonal antibody directed against the amino-terminal 10 amino acids of _-smooth muscle actin or _-myosin (Roche Diagnostics, Indianapolis, Ind.). All cells were stained with fluorescein-labeled goat anti-mouse IgG antibody (Roche Diagnostics).
Expression of PKA and PKG: The expression of PKA and PKG was determined by Western blot as previously described by Wu et al. and Murthy et al. (Wu B N, Lin R J, Lo Y C, Shen K P, Wang C C, Lin Y T, and Chen I J (2004) KMUP-1, a xanthine derivatives, induces relaxation of guinea-pig isolated trachea: the role of the epithelium, cyclic nucleotides and K^+ channels. Br J Pharmacol 142:1105-1114; Murthy K S, Zhou H, and Makhlouf G M (2002) PKA-dependent activation of PDE3A and PDE4 and inhibition of adenylyl cyclase V/VI in smooth muscle. Am J Physiol 282:C508-C517). Guinea pig TSMCs were incubated with KMUP-3 for 30 min. Each of the cell lysates, each containing 1 _g of cellular protein, was electrophoresed in 7.5% SDS-polyacrylamide gel electrophoresis and then transferred to polyvinylidene diflouride membrane (Millipore Corporation, Billerica, Mass.). The membrane was stained with Ponceau S to verify the integrity of the transferred proteins and to monitor the unbiased transfer of all protein samples. The membrane was then washed with 25 ml of TBS (100 mM NaCl, 0.1% and 10 mM Tris-HCl, pH 7.5) for 5 min at room temperature and incubated in 25 ml of blocking buffer (TBS plus 0.1% Tween 20 and 5% nonfat milk) overnight at 4_. In the measurement of protein, the membrane was incubated with appropriate PKARI or PKA1—1— primary antibody (diluted 1:250) in 2 ml of blocking buffer for 1 h at room temperature, washed three times for 5 min each with 15 ml of Tris-buffered saline/Tween 20 (TBS plus 0.1% Tween 20), incubated with horseradish peroxidase-conjugated secondary antibody (1:10,000) in 15 ml of blocking buffer with gentle agitation for 1 h at room temperature, and finally washed three times for 5 min each time with 15 ml of Tris-buffered saline/Tween 20. The membrane was then subjected to enhanced chemiluminescence (GE Healthcare) for the detection of the specific antigen.

Cn1c(=O)c2c(ncn2CCN2CCN(c3ccc([N+](=O)[O-])cc3)CC2)n(C)c1=O [KMUP-3] was tested, and the “PDE5 Inhibition” value [1] was 48 ± 1.9 %, the “expression of PKA1—1— (FIG. 7(B))” value ([2]; 1 _M, 30 min) was “increased the expression of PKA1—1—” and the “expression of immunoreactive PKARI protein (FIG. 7(A))” value ([2]; 1 _M, 30 min) was “increased the expression of PKARI”. For the same molecule, the “PKG protein after ODQ pretreatment” value ([2]; ODQ (10_M) 30 min prior to compound (1 _M)) was “significantly reduced”, the “PKA protein expression after ODQ pretreatment” value ([2]; ODQ (10 _M) 30 min prior to compound, unpublished data) was “did not significantly affect” and the “expression of PKARI after SQ 22536 pretreatment” value ([2]; SQ 22536 (100 _M) 30 min prior to compound (1 _M)) was “attenuated”.
